In paper PMC10873978, “Novel tetrahydroisoquinolines as DHFR and CDK2 inhibitors: synthesis, characterization, anticancer activity and antioxidant properties” (BMC Chemistry, 2024):

Tests used:
MCF7 cell line = experiment: In vitro cytotoxic activity, MTT method, MCF7; type: cell-based, human; conditions: for IC50: Homo sapiens, MCF7, MCF7 cell line, MTT
Procedure: (§1) Cell lines: The in vitro human breast cancerous cell line (MCF7), lung cancerous cell lines (A549) and normal cell lines were purchased from Serum and Vaccine formulation in Cairo-Egypt.
(§2) In vitro cytotoxic activity of all synthesized compounds against two human breast cell line (MCF7) and lung cell lines (A549) was evaluated according to the MTT method. Firstly, Growth the cell line medium in 96 well tissue culture plate was injected with 10^5 cells/mL (100 uL/plate well) of the cell line and incubated at 37 °C for 24 h to develop a monolayer sheet then the formed growth medium was poured from 96 well microtiter plates after the confluent sheet of cells. […] Secondly, add 0.1 mL of each concentration tetrahydroisoquinoline sample to each plate. The plates were incubated at 37 °C. Thirdly MTT solution (5 mg/mL in PBS) is prepared. Add 20 µL of MTT solution to each well plates. And shaking in 150 rpm for 5 min, to mix the MTT into the media. Then incubate at (37 °C, 5% CO2) for 1–5 h. Finally read the optical density at 560 nm and subtract background at 620 nm.
(§3) In this work, doxorubicin was used as a positive control drug for comparison with the synthesized compounds under the same experimental conditions.

A549 cell line = experiment: In vitro cytotoxic activity, MTT method, A549; conditions: for IC50: Homo sapiens, read-out: IC50 ± SD
Procedure: as §1, §2, §3

[1] = DPPH scavenging antioxidant activity
Procedure: The antioxidant activity of ten compounds was determined using DPPH [32–34]. A solution 1: prepared by dissolving DPPH (0.002 g) in ethanol (50 mL etnanol). Solution 2: prepared by dissolving different weights 0.05, 0.01 g of each sample in 1 mL of DMSO then take 10 µL of each sample solution with 1 mL ethanol. Then mix 1 mL of solution 1 with 1 mL of solution 2 then vortex the resulting mixture in the dark for about 30 min. The absorbance of the mixture was measured by spectrophotometer at λmax = 517 nm against blank 1 mL absolute ethanol and compared to the ascorbic acid (Vitamin C).
Ten newly synthesized compounds were studied as in vitro antioxidants by measuring of their DPPH scavenging activity which is represented as a percentage % [32]^. Results are represented by mean ± SD of three replicates. […] The higher dose concentration of 0.05 μg/mL represents higher antioxidant activity. […] The high antioxidant activity is referred to the presence of C=O, NH2, and OH groups like ascorbic acid which can be easily oxidized and reduced and can be used as antioxidant drugs. (Fig. 8 and Table 9).

SMILES: CC(=O)C1C(c2ccc(N(C)C)cc2)c2c(C)nc(SCC(=O)Nc3ccccc3)c(C#N)c2CC1(C)O (centres unmarked) [Compound 7a, 2-[(7-Acetyl-4-cyano-1,6-dimethyl-6-hydroxy-8-(4-N,N-dimethylamino-phenyl)-5,6,7,8-tetrahydroisoquinolin-3-yl)thio]-N-phenylacetamide]
- IC50 (MCF7 cell line): 2.218 ± 0.004 µM
- Toxicity % (MCF7 cell line; MCF7, 0.0487 µMol): -5.346%
- Viability % (MCF7 cell line; MCF7, 0.0487 µMol): 105.8%
- Toxicity % (MCF7 cell line; MCF7, 0.0975 µMol): -3.456%
- Viability % (MCF7 cell line; MCF7, 0.0975 µMol): 103.5%
- Toxicity % (MCF7 cell line; MCF7, 0.195 µMol): -2.859%
- Viability % (MCF7 cell line; MCF7, 0.195 µMol): 102.9%
- Toxicity % (MCF7 cell line; MCF7, 0.391 µMol): 8.047%
- Viability % (MCF7 cell line; MCF7, 0.391 µMol): 91.95%
- Toxicity % (MCF7 cell line; MCF7, 0.781 µMol): 23.12%
- Viability % (MCF7 cell line; MCF7, 0.781 µMol): 76.88%
- Toxicity % (MCF7 cell line; MCF7, 1.562 µMol): 33.82%
- Viability % (MCF7 cell line; MCF7, 1.562 µMol): 66.18%
- Toxicity % (MCF7 cell line; MCF7, 3.125 µMol): 52.98%
- Viability % (MCF7 cell line; MCF7, 3.125 µMol): 47.02%
- Toxicity % (MCF7 cell line; MCF7, 6.25 µMol): 71.85%
- Viability % (MCF7 cell line; MCF7, 6.25 µMol): 28.15%
- Toxicity % (MCF7 cell line; MCF7, 12.5 µMol): 91.95%
- Viability % (MCF7 cell line; MCF7, 12.5 µMol): 8.047%
- Toxicity % (MCF7 cell line; MCF7, 25 µMol): 97.39%
- Viability % (MCF7 cell line; MCF7, 25 µMol): 2.614%
- Toxicity % (A549 cell line; A549, Conc. 0.04875 µMol): 0.09882%
- Viability % (A549 cell line; A549, Conc. 0.04875 µMol): 99.9%
- Toxicity % (A549 cell line; A549, Conc. 0.0975 µMol): 0.1346%
- Viability % (A549 cell line; A549, Conc. 0.0975 µMol): 99.87%
- Toxicity % (A549 cell line; A549, Conc. 0.195 µMol): 0.168%
- Viability % (A549 cell line; A549, Conc. 0.195 µMol): 99.83%
- Toxicity % (A549 cell line; A549, Conc. 0.391 µMol): 13.91%
- Viability % (A549 cell line; A549, Conc. 0.391 µMol): 86.09%
- Toxicity % (A549 cell line; A549, Conc. 0.781 µMol): 29.94%
- Viability % (A549 cell line; A549, Conc. 0.781 µMol): 70.06%
- Toxicity % (A549 cell line; A549, Conc. 1.562 µMol): 41.33%
- Viability % (A549 cell line; A549, Conc. 1.562 µMol): 58.67%
- Toxicity % (A549 cell line; A549, Conc. 3.125 µMol): 53.33%
- Viability % (A549 cell line; A549, Conc. 3.125 µMol): 46.67%
- Toxicity % (A549 cell line; A549, Conc. 6.25 µMol): 80.11%
- Viability % (A549 cell line; A549, Conc. 6.25 µMol): 19.89%
- Toxicity % (A549 cell line; A549, Conc. 12.5 µMol): 91.33%
- Viability % (A549 cell line; A549, Conc. 12.5 µMol): 8.669%
- Toxicity % (A549 cell line; A549, Conc. 25 µMol): 96.98%
- Viability % (A549 cell line; A549, Conc. 25 µMol): 3.024%
- IC50 (A549 cell line): 1.586 ± 0.001 µM
- DPPH scavenging, inhibition (%) ([1]; 0.01 µg/mL): 43.26 ± 0.73%
- DPPH scavenging, inhibition (%) ([1]; 0.05 µg/mL): 62.96 ± 0.73%

SMILES: CC(=O)C1C(c2ccc(N(C)C)cc2)c2c(C)nc3sc(C(=O)Nc4ccccc4)c(N)c3c2CC1(C)O (centres unmarked) [Compound 8a, 7-Acetyl-1-amino-5,8-dimethyl-8-hydroxy-6-(4-N,N-dimethylaminophenyl)-N-phenyl-6,7,8,9-tetrahydrothieno[2,3-c]isoquinoline-2-carboxamide]
- IC50 (MCF7 cell line): 0.872 ± 0.003 µM
- Toxicity % (MCF7 cell line; MCF7, Conc. 0.0487 µMol): -1.567%
- Viability % (MCF7 cell line; MCF7, Conc. 0.0487 µMol): 101.5%
- Toxicity % (MCF7 cell line; MCF7, Conc. 0.0975 µMol): -0.5332%
- Viability % (MCF7 cell line; MCF7, Conc. 0.0975 µMol): 100.6%
- Toxicity % (MCF7 cell line; MCF7, Conc. 0.195 µMol): -0.4085%
- Viability % (MCF7 cell line; MCF7, Conc. 0.195 µMol): 100.4%
- Toxicity % (MCF7 cell line; MCF7, Conc. 0.391 µMol): 8.047%
- Viability % (MCF7 cell line; MCF7, Conc. 0.391 µMol): 91.95%
- Toxicity % (MCF7 cell line; MCF7, Conc. 0.781 µMol): 34.56%
- Viability % (MCF7 cell line; MCF7, Conc. 0.781 µMol): 65.44%
- Toxicity % (MCF7 cell line; MCF7, Conc. 1.562 µMol): 65.28%
- Viability % (MCF7 cell line; MCF7, Conc. 1.562 µMol): 34.72%
- Toxicity % (MCF7 cell line; MCF7, Conc. 3.125 µMol): 87.21%
- Viability % (MCF7 cell line; MCF7, Conc. 3.125 µMol): 12.79%
- Toxicity % (MCF7 cell line; MCF7, Conc. 6.25 µMol): 94.16%
- Viability % (MCF7 cell line; MCF7, Conc. 6.25 µMol): 5.842%
- Toxicity % (MCF7 cell line; MCF7, Conc. 12.5 µMol): 96.9%
- Viability % (MCF7 cell line; MCF7, Conc. 12.5 µMol): 3.105%
- Toxicity % (MCF7 cell line; MCF7, Conc. 25 µMol): 97.43%
- Viability % (MCF7 cell line; MCF7, Conc. 25 µMol): 2.574%
- Toxicity % (A549 cell line; A549, Conc. 0.04875 µMol): 3.135%
- Toxicity % (A549 cell line; A549, Conc. 0.0975 µMol): 3.679%
- Toxicity % (A549 cell line; A549, Conc. 0.195 µMol): 4.221%
- Viability % (A549 cell line; A549, Conc. 0.195 µMol): 95.78%
- Toxicity % (A549 cell line; A549, Conc. 0.391 µMol): 10.77%
- Viability % (A549 cell line; A549, Conc. 0.391 µMol): 89.23%
- Toxicity % (A549 cell line; A549, Conc. 0.781 µMol): 39.61%
- Viability % (A549 cell line; A549, Conc. 0.781 µMol): 60.39%
- Toxicity % (A549 cell line; A549, Conc. 1.562 µMol): 53.57%
- Viability % (A549 cell line; A549, Conc. 1.562 µMol): 46.43%
- Toxicity % (A549 cell line; A549, Conc. 3.125 µMol): 74.67%
- Viability % (A549 cell line; A549, Conc. 3.125 µMol): 25.33%
- Toxicity % (A549 cell line; A549, Conc. 6.25 µMol): 88.24%
- Viability % (A549 cell line; A549, Conc. 6.25 µMol): 11.76%
- Toxicity % (A549 cell line; A549, Conc. 12.5 µMol): 96.69%
- Viability % (A549 cell line; A549, Conc. 12.5 µMol): 3.314%
- Toxicity % (A549 cell line; A549, Conc. 25 µMol): 97.95%
- Viability % (A549 cell line; A549, Conc. 25 µMol): 2.051%
- IC50 (A549 cell line): 1.045 ± 0.006 µM
- DPPH scavenging, inhibition (%) ([1]; 0.01 µg/mL): 14.22 ± 1.32%
- DPPH scavenging, inhibition (%) ([1]; 0.05 µg/mL): 23.66 ± 2.12%
